Columns and labels:
Assay type in all cases: in vivo
[1] = system: diamondback moth (Plutella xylostella); assay: Insecticidal effect on diamondback moth (Test Example 1); details: diamondback moth; judged by the criterion of Test Example 1
Outline: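 Eggs laid by adult moths on Chinese cabbage seedlings, which were immersed in test solution, air-dried and kept at 25 °C. Hatched insects counted 6 days after immersion and mortality calculated, with effect graded by criterion; triplicate groups of 10 insects.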

[2] = system: common cutworm (Spodoptera Litura); assay: Insecticidal effect on common cutworm (Test Example 2); details: 500 ppm, 25° C.; for Insecticidal effect (Test Example 2), judged from mortality / Insecticidal effect on common cutworm (Test Example 2), judged grade: cabbage leaf dip; for Insecticidal effect (Test Example 2), judged from mortality: 8 days after inoculation; for Insecticidal effect, Test Example 2: cabbage leaf immersed; for Insecticidal effect, Test Example 2 / Insecticidal effect on common cutworm (Test Example 2), judged grade: eight days after inoculation; for Insecticidal effect on common cutworm (Test Example 2), judged grade: second-instar larvae
Protocol: Insecticidal effect on common cutworm (Spodoptera Litura)
After air-drying, it was placed in a plastic Petri dish with a diameter of 9 cm and inoculated with second-instar larvae of common cutworm, after which the dish was closed and then allowed to stand in a room thermostated at 25° C. Eight days after the inoculation, the dead and alive were counted. The mortality was calculated according to the following equation and the insecticidal effect was judged according to the criterion shown in Test Example 1. The test was carried out with triplicate groups of 10 insects. [formula]

[3] = system: rice leafroller (Cnaphalocrocis medinalis); assay: Insecticidal effect on rice leafroller (Test Example 3); details: 500 ppm, rice lamina dip, third-instar larvae of rice leafroller, 4 days after inoculation, 25° C., humidity 70%
Outline: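 Groups of 10 third-instar larvae, in triplicate, are placed on air-dried lamina resting on wet filter paper. Incubation runs four days at 25° C with 70% humidity before survivors and dead are tallied.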

[4] = second-instar larvae of common cutworm
[5] = common cutworm second-instar larvae

## Cc1cc2c(cc1NC(=O)c1cccc(Cl)c1C(=O)NC(C)C)OC(F)(F)C(F)O2 (racemic) [compound 1597]
[1]
  Insecticidal effect (Test Example 1), judged from mortality: A (100)
[2]; [4]
  Insecticidal effect (Test Example 2), judged from mortality: A (100)

## Cc1cc2c(cc1NC(=O)c1cccc(I)c1C(=O)NC(C)C)OC(F)(F)C(F)O2 (racemic) [compound 1598]
[1]
  Insecticidal effect (Test Example 1), judged from mortality: A (100)
[2]; [4]
  Insecticidal effect (Test Example 2), judged from mortality: A (100)

## Cc1cc2c(cc1NC(=O)c1cccc(I)c1C(=O)NC(C)(C)C)OC(F)(F)C(F)O2 (racemic) [compound 1599]
[1]
  Insecticidal effect (Test Example 1), judged from mortality: A (100)
[2]; [4]
  Insecticidal effect (Test Example 2), judged from mortality: A (100)

## CC(C)NC(=O)c1ccc(Cl)cc1C(=O)Nc1ccccc1 [compound 181]
[2]; [4]
  Insecticidal effect, Test Example 2: A (100)

## CC(C)NC(=O)c1c(C(=O)Nc2cc(C(F)(F)F)cc(C(F)(F)F)c2)cccc1[N+](=O)[O-] [compound 654]
[2]
  Insecticidal effect on common cutworm (Test Example 2), judged grade: D (79-50)

## CSc1cccc(C(=O)NC(C)C)c1C(=O)Nc1cccc(Cl)c1C [compound 785]
[2]
  Insecticidal effect on common cutworm (Test Example 2), judged grade: A (100)

## Cc1ccc(OCCNC(=O)c2c(C(=O)Nc3cc(Cl)ccc3C)cccc2[N+](=O)[O-])c(C)c1 [compound 880]
[2]
  Insecticidal effect on common cutworm (Test Example 2), judged grade: D (79-50)

## Cc1cc(C#Cc2ccc(Cl)cc2Cl)ccc1NC(=O)c1cccc(I)c1C(=O)NC(C)C [compound 972]
[2]; [5]
  Insecticidal effect, Test Example 2: A (100)

## CC(C)NC(=O)c1ccccc1C(=O)Nc1ccc(SC(F)(F)F)cc1 [compound 1123]
[2]; [5]
  Insecticidal effect, Test Example 2: A (100)

## CCN(CC)C(=O)c1c(F)cccc1C(=O)Nc1ccc(OC(F)F)cc1C [compound 1528]
[3]
  Insecticidal effect (Test Example 3), judged from mortality: A (100)
[1]
  Insecticidal effect (Test Example 1), judged from mortality: A (100)

## CCN(CC)C(=O)c1c(F)cccc1C(=O)Nc1ccc(OC(F)(F)C(F)F)cc1C [compound 1529]
[3]
  Insecticidal effect (Test Example 3), judged from mortality: A (100)
[1]
  Insecticidal effect (Test Example 1), judged from mortality: A (100)

## CCN(CC)C(=O)c1c(F)cccc1C(=O)Nc1ccc(C(F)(F)C(F)(F)F)cc1F [compound 1530]
[3]
  Insecticidal effect (Test Example 3), judged from mortality: A (100)
[1]
  Insecticidal effect (Test Example 1), judged from mortality: A (100)

## CCN(CC)C(=O)c1c(F)cccc1C(=O)Nc1ccc(C(F)(F)F)cc1 [compound 1547]
[3]
  Insecticidal effect (Test Example 3), judged from mortality: A (100)
[1]
  Insecticidal effect (Test Example 1), judged from mortality: A (100)

## CCN(CC)C(=O)c1c(F)cccc1C(=O)Nc1ccc(OC(F)(F)F)cc1 [compound 1548]
[3]
  Insecticidal effect (Test Example 3), judged from mortality: A (100)
[1]
  Insecticidal effect (Test Example 1), judged from mortality: A (100)

## Cc1cc(C(F)(F)C(F)(F)F)ccc1N(C)C(=O)c1cccc(Cl)c1C(=O)N(C)Cc1ccccc1 [compound 1553]
[3]
  Insecticidal effect (Test Example 3), judged from mortality: A (100)
[1]
  Insecticidal effect (Test Example 1), judged from mortality: A (100)

## CCN(CC)C(=O)c1c(I)cccc1C(=O)Nc1ccc(OC(F)F)cc1C [compound 1555]
[3]
  Insecticidal effect (Test Example 3), judged from mortality: A (100)
[1]
  Insecticidal effect (Test Example 1), judged from mortality: A (100)

## CCCN(CC)C(=O)c1c(I)cccc1C(=O)Nc1ccc(OC(F)F)cc1C [compound 1575]
[3]
  Insecticidal effect (Test Example 3), judged from mortality: A (100)
[1]
  Insecticidal effect (Test Example 1), judged from mortality: A (100)

## Cc1cc(C(F)(F)C(F)(F)F)ccc1NC(=O)c1cccc(Cl)c1C(=O)N(C)Cc1cccc(Cl)c1 [compound 1578]
[3]
  Insecticidal effect (Test Example 3), judged from mortality: A (100)
[1]
  Insecticidal effect (Test Example 1), judged from mortality: A (100)

## CCCN(CC)C(=O)c1c(F)cccc1C(=O)Nc1ccc(OC(F)(F)F)cc1 [compound 1582]
[3]
  Insecticidal effect (Test Example 3), judged from mortality: A (100)
[1]
  Insecticidal effect (Test Example 1), judged from mortality: A (100)

## CCCN(CC)C(=O)c1c(F)cccc1C(=O)Nc1ccc(OC(F)F)cc1 [compound 1583]
[3]
  Insecticidal effect (Test Example 3), judged from mortality: A (100)
[1]
  Insecticidal effect (Test Example 1), judged from mortality: A (100)

## CCCN(CC)C(=O)c1c(F)cccc1C(=O)Nc1ccc(C(F)(F)C(F)(F)F)cc1Cl [compound 1584]
[3]
  Insecticidal effect (Test Example 3), judged from mortality: A (100)
[1]
  Insecticidal effect (Test Example 1), judged from mortality: A (100)

## C#CC(C)(C)NC(=O)c1c(Cl)cccc1C(=O)Nc1ccc(OC(F)F)cc1C [compound 1588]
[3]
  Insecticidal effect (Test Example 3), judged from mortality: A (100)
[1]
  Insecticidal effect (Test Example 1), judged from mortality: A (100)

## C=CC(C)(C)NC(=O)c1cccc(Cl)c1C(=O)Nc1ccc(C(F)(F)C(F)(F)F)cc1C [compound 1589]
[3]
  Insecticidal effect (Test Example 3), judged from mortality: A (100)
[1]
  Insecticidal effect (Test Example 1), judged from mortality: A (100)

## CC(C)NC(=O)c1c(I)cccc1C(=O)Nc1ccc2c(c1)OC(F)(F)C2(F)F [compound 1620]
[3]
  Insecticidal effect (Test Example 3), judged from mortality: A (100)
[1]
  Insecticidal effect (Test Example 1), judged from mortality: A (100)

## CC(C)NC(=O)c1c(I)cccc1C(=O)Nc1ccc2c(c1Cl)OC(F)(F)C(F)(F)O2 [compound 1626]
[3]
  Insecticidal effect (Test Example 3), judged from mortality: A (100)
[1]
  Insecticidal effect (Test Example 1), judged from mortality: A (100)

## CC(C)NC(=O)c1ccccc1C(=O)Nc1ccc(Cl)cc1F [compound 1632]
[3]
  Insecticidal effect (Test Example 3), judged from mortality: A (100)
[1]
  Insecticidal effect (Test Example 1), judged from mortality: A (100)

## Cc1cc2oc(C(F)(F)F)nc2cc1NC(=O)c1cccc(I)c1C(=O)NC(C)C [compound 1641]
[3]
  Insecticidal effect (Test Example 3), judged from mortality: A (100)
[1]
  Insecticidal effect (Test Example 1), judged from mortality: A (100)

## CC(C)NC(=O)c1c(Cl)cccc1C(=O)Nc1cc2c(cc1Cl)OC(F)(F)C(F)(F)O2 [compound 1643]
[3]
  Insecticidal effect (Test Example 3), judged from mortality: A (100)
[1]
  Insecticidal effect (Test Example 1), judged from mortality: A (100)

## Cc1nc(-c2cccc(NC(=O)c3cccc(I)c3C(=O)NC(C)C)c2)co1 [compound 1659]
[3]
  Insecticidal effect (Test Example 3), judged from mortality: A (100)
[1]
  Insecticidal effect (Test Example 1), judged from mortality: A (100)

## CC(C)NC(=O)c1c(I)cccc1C(=O)Nc1ccc(C(F)(C(F)(F)F)C(F)(F)F)c2c1CCCC2 [compound 1726]
[3]
  Insecticidal effect (Test Example 3), judged from mortality: A (100)
[1]
  Insecticidal effect (Test Example 1), judged from mortality: A (100)

## CC(C)(C)NC(=O)c1c(I)cccc1C(=O)Nc1ccc(C(F)(C(F)(F)F)C(F)(F)F)c2c1CCCC2 [compound 1727]
[3]
  Insecticidal effect (Test Example 3), judged from mortality: A (100)
[1]
  Insecticidal effect (Test Example 1), judged from mortality: A (100)

## CC(C)NC(=O)c1c(I)cccc1C(=O)Nc1ccc2c(c1Cl)OC(F)(F)C(F)(F)O2 [compound 1732]
[2]; [4]
  Insecticidal effect (Test Example 2), judged from mortality: A (100)

## CC(C)NC(=O)c1c(I)cccc1C(=O)Nc1cccc2c1OC(F)(F)O2 [compound 1742]
[3]
  Insecticidal effect (Test Example 3), judged from mortality: A (100)
[1]
  Insecticidal effect (Test Example 1), judged from mortality: A (100)

## CC(C)NC(=O)c1c(I)cccc1C(=O)Nc1c(Cl)ccc2c1OC(F)(F)O2 [compound 1743]
[3]
  Insecticidal effect (Test Example 3), judged from mortality: A (100)
[1]
  Insecticidal effect (Test Example 1), judged from mortality: A (100)

## CC(C)(C)NC(=O)c1c(I)cccc1C(=O)Nc1c(Cl)cc(Cl)c2c1OC(F)(F)O2 [compound 1748]
[3]
  Insecticidal effect (Test Example 3), judged from mortality: A (100)
[1]
  Insecticidal effect (Test Example 1), judged from mortality: A (100)

## C=CCON=C(C)c1ccc(NC(=O)c2cccc(I)c2C(=O)NC(C)C)cc1 [compound 1750]
[3]
  Insecticidal effect (Test Example 3), judged from mortality: A (100)
[1]
  Insecticidal effect (Test Example 1), judged from mortality: A (100)

## CCN(CC)C(=O)c1ccccc1C(=O)Nc1ccc(Cl)cc1C [compound 1752]
[3]
  Insecticidal effect (Test Example 3), judged from mortality: A (100)
[1]
  Insecticidal effect (Test Example 1), judged from mortality: A (100)

## CC(C)NC(=O)c1c(I)cccc1C(=O)Nc1ccc(C(C)C)c2scnc12 [compound 1763]
[3]
  Insecticidal effect (Test Example 3), judged from mortality: A (100)
[1]
  Insecticidal effect (Test Example 1), judged from mortality: A (100)

## CC(C)NC(=O)c1c(I)cccc1C(=O)Nc1ccc(C(F)(C(F)(F)F)C(F)(F)F)cc1Oc1ccccc1 [compound 1768]
[3]
  Insecticidal effect (Test Example 3), judged from mortality: A (100)
[1]
  Insecticidal effect (Test Example 1), judged from mortality: A (100)

## Cc1cc(C(F)(C(F)(F)F)C(F)(F)F)ccc1NC(=O)c1cccc(I)c1C(=O)NCCc1cccnc1 [compound 1770]
[3]
  Insecticidal effect (Test Example 3), judged from mortality: A (100)
[1]
  Insecticidal effect (Test Example 1), judged from mortality: A (100)

## Cc1cc(OC(F)(F)F)ccc1NC(=O)c1cccc(I)c1C(=O)NCCc1cccnc1 [compound 1772]
[3]
  Insecticidal effect (Test Example 3), judged from mortality: A (100)
[1]
  Insecticidal effect (Test Example 1), judged from mortality: A (100)

## Cc1cc(C(F)(C(F)(F)F)C(F)(F)F)ccc1NC(=O)c1c(I)cccc1C(=O)NC(C)c1ccccn1 (centres unmarked) [compound 1774]
[3]
  Insecticidal effect (Test Example 3), judged from mortality: A (100)
[1]
  Insecticidal effect (Test Example 1), judged from mortality: A (100)

## Cc1cc(OC(F)(F)F)ccc1NC(=O)c1cccc(I)c1C(=O)NC(C)c1ccccn1 (centres unmarked) [compound 1775]
[3]
  Insecticidal effect (Test Example 3), judged from mortality: A (100)
[1]
  Insecticidal effect (Test Example 1), judged from mortality: A (100)

## Cc1cc(OC(F)(F)F)ccc1NC(=O)c1c(I)cccc1C(=O)NC(C)c1ccccn1 (centres unmarked) [compound 1776]
[3]
  Insecticidal effect (Test Example 3), judged from mortality: A (100)
[1]
  Insecticidal effect (Test Example 1), judged from mortality: A (100)

## Cc1cc(C(F)(F)C(F)(F)F)ccc1NC(=O)c1c(I)cccc1C(=O)NC(C)c1ccccn1 (centres unmarked) [compound 1778]
[3]
  Insecticidal effect (Test Example 3), judged from mortality: A (100)
[1]
  Insecticidal effect (Test Example 1), judged from mortality: A (100)
